Experimental data taken from the NIST ThermoML archive (doi:10.1007/s10765-018-2361-8).
Numbers after ± are expanded uncertainties.

Details: for mass density / kinematic viscosity: 101.33 kPa; for mass density / kinematic viscosity / vapor or sublimation pressure: Liquid; for mass density: Pycnometric method; for surface tension liquid-gas: Capillary rise; for kinematic viscosity: Capillary tube (Ostwald / Ubbelohde) method; for vapor or sublimation pressure: Closed cell (Static) method

CC(C)O [propan-2-ol]
Details	kinematic viscosity [m2/s]	mass density [kg/m3]	surface tension liquid-gas [mN/m]	vapor or sublimation pressure [kPa]
263.1 K	–	810.9 ± 1.1	–	–
283.1 K	–	795.3 ± 1	–	–
293.2 K	3.12e-06 ± 6e-08	–	21.4 ± 0.2	–
295.3 K	–	784.3 ± 1	–	–
297.9 K	–	–	–	6.38 ± 1
303.2 K	2.35e-06 ± 5e-08	–	–	–
303.3 K	–	–	20.6 ± 0.2	–
303.6 K	–	777.5 ± 1	–	–
303.7 K	–	–	–	8.93 ± 1
313.2 K	–	–	19.8 ± 0.2	–
321.2 K	–	–	–	21.91 ± 1
323.2 K	1.39e-06 ± 5e-08	–	–	–
323.3 K	–	–	19 ± 0.2	–
323.4 K	–	760.1 ± 1.1	–	–
333.2 K	–	–	18.2 ± 0.2	–
333.5 K	–	–	–	39.46 ± 1.1
343.3 K	9e-07 ± 5e-08	741 ± 1.1	17.4 ± 0.2	61.57 ± 1.1
352.9 K	–	–	–	92.28 ± 1.3
362.5 K	–	–	–	134.96 ± 1.4
